Where two headings read alike, the source gives them in different places. Ends that are not written are not given here.
Assay: HPLC partitioning of synthetic helix dimers between aqueous mobile phase and nonpolar C-18 stationary phase as a function of pH
Assay type: physicochemical
Procedure: To determine whether the properties of the synthetic helices corresponded to their expected properties, each was tested on an HPLC column using a nonpolar (C-18) stationary phase. A sample of synthetic peptide solution was then injected, and the elution time (time to emerge from the bottom of the column) measured. The void time for the column was measured by injecting a small charged molecule such as citrate or acetate. The fraction of the sample solubilized in the aqueous, mobile phase (versus that bound to the hydrophobic, immobile phase) is determined by the void time divided by the sample elution time. A sample emerging in the void time is completely soluble in the mobile phase, whereas if it emerges in two void times it is half solubilized in the mobile phase and half bound to the stationary phase. By this procedure the affinity of each of the synthetic peptides for the aqueous, mobile phase, relative to the hydrophobic, stationary phase, could be measured as a function of pH. The HPLC column was run isocratically (constant eluent) using one of several different buffer systems. […] For that reason a value of 13% was used for all the buffer systems in that at that concentration the elution time for the peptides was determined to be on the order of 2 to 20 times the void time. […] The column was allowed to equilibrate as judged by 214 nm absorbance baseline stability. […]

Row | Sequence | fraction of the helix partitioned into the aqueous mobile phase (partition coefficient) as a function of pH (C-18 HPLC, isocratic, 13% acetonitrile, trend with increasing pH) | fraction of the helix partitioned into the aqueous mobile phase (partition coefficient) as a function of pH
1 | AHNLNEAAHNLNEA [Helix P-81, (Ala--His--Asn--Leu--Asn--Glu--Ala)2] | fraction of the helix partitioning into the mobile phase increases as pH increases | 
2 | AKNLNEAAKNLNEA [Helix P-72, (Ala--Lys--Asn--Leu--Asn--Glu--Ala)2] |  | as the pH increased the peptide partitioned increasingly into the hydrophobic (stationary) phase

From patent US5302526A, “Recombinant DNA enclosed amphiphilic leader sequences for the production and purification of fusion proteins” (Creative BioMolecules, Inc., priority 1993, dated 1994)
